Laboratory results from patent US20050222406A1, “Condensed palatinose in hydrogenated form” (priority 2002, published 2005).

What was measured:
[1] = tested on: saccharase/isomaltase (SI) enzyme complex; test: Cleavability by small-intestine α-glucosidases, SI complex; settings: 2 hours, 37° C.
Description: The saccharase/isomaltase (SI) and glucoamylase/-maltase (GM) enzyme complexes were isolated from porcine small intestine by the method of H. Heymann (Dissertation, Hannover, 1991).
• triethanolamine (TRA) buffer, 0.1 M, pH 7.0 • saccharide, 1% strength solution in TRA buffer • maltose or sucrose, as control substances, 1% strength in TRA buffer • mucosa enzyme, dissolved in TRA buffer Reaction Mixture:
1.2 ml of the carbohydrate solution, at a controlled temperature of 37° C., were admixed with 0.7 U of the saccharase/isomaltose or glucoamylase/maltase enzyme complex, respectively, at t=0. Mixing was followed by incubation at 37° C. The reaction was stopped after 2 hours by heating at 95° C. for 15 minutes. The monosaccharides formed and also the test substances used were assayed by HPAEC.

[2] = Stability in the stomach: rate of hydrolysis at pH 2.0; format: physicochemical; settings: pH 2.0 (0.01 M HCl), 37° C., 1% solution
Description: The stability of a substance on passage through the stomach can be ascertained by determining the rate of hydrolysis at a pH of 2.0, using sucrose and 1-kestose as controls.
Samples were taken from the reaction mixture after 60, 120 and 180 minutes. They were analyzed by means of HPAEC techniques.
Report as hydrolysis rates in %

[3] = tested on: glucoamylase/maltase (GM) enzyme complex; test: Cleavability by small-intestine α-glucosidases, GM complex; format: in vitro ADME, porcine; settings: 2 hours, 37° C.
Description: Mixing was followed by incubation at 37° C.

SMILES | hydrolysis by the SI enzyme complex [1] | hydrolysis rate ([2]; incubation time 0 min.) | hydrolysis rate ([2]; incubation time 60 min.) | hydrolysis rate ([2]; incubation time 120 min.) | hydrolysis rate ([2]; incubation time 180 min.) | hydrolysis by the GM enzyme complex [3]
OC[C@H]1O[C@@](CO)(O[C@H]2O[C@H](CO)[C@@H](O)[C@H](O)[C@H]2O)[C@@H](O)[C@@H]1O [Sucrose, sucrose] | virtually complete hydrolysis | 0% | 2% | 5% | 8% | –
OC[C@H]1O[C@@](CO)(OC[C@@]2(O[C@H]3O[C@H](CO)[C@@H](O)[C@H](O)[C@H]3O)O[C@H](CO)[C@@H](O)[C@@H]2O)[C@@H](O)[C@@H]1O [1-Kestose, 1-kestose] | – | 0% | 11% | 25% | 36% | –
OC[C@H]1O[C@H](O[C@H]2[C@H](O)[C@@H](O)C(O)O[C@@H]2CO)[C@H](O)[C@@H](O)[C@@H]1O (mixture of isomers) [Maltose, maltose] | virtually complete hydrolysis | – | – | – | – | virtually complete hydrolysis
